Like-named read-outs stand apart in the source and are kept apart here.

Usually IC50 stands for the midpoint of a concentration-inhibition curve.

One assay concerns the target T1, dopamine D-2 receptor (Rattus norvegicus, UniProt P61169).
T1 construct: homogenized limbic brain tissue is incubated with; from tissue; host or cells: limbic brain tissue, homogenized
The assay can be described thus: Affinity for the dopamine D-2 receptor, 3H-spiroperidol binding in homogenized limbic brain tissue.

In assay [1] the target is T2, 5-HT1A serotonin receptor (Rattus norvegicus, UniProt P19327).
T2 sequence (P19327 1-422): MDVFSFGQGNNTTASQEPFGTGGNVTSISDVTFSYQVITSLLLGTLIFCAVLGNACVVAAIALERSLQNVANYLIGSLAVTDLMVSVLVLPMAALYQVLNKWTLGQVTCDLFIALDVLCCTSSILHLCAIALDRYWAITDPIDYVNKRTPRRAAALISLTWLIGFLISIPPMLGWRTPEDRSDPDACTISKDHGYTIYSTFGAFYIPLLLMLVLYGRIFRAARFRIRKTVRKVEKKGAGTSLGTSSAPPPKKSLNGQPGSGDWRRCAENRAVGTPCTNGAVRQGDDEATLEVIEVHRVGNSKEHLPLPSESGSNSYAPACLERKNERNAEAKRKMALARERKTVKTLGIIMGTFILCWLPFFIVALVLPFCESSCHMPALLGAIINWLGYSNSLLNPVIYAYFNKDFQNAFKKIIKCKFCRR
The assay can be described thus: Displacement of [3H] 8-OHDPAT from the 5-HT1A serotonin receptor. The format is binding. The source says: High affinity for the serotonin 5-HT1A receptor was established by testing the claimed compound's ability to displace [^3 H] 8-OHDPAT (dipropylaminotetralin) from the 5-HT1A serotonin receptor following the procedure of Hall et al., J. Neurochem. 44, 1685 (1985). […] The anxiolytic activity of buspirone is believed to be, at least partially, due to its 5-HT1A receptor affinity (Vander Maclen et al., Eur. J. Pharmacol. 1986, 129 (1-2) 133-130).
(In a radioligand displacement assay an active substance lowers the binding of a labelled ligand.)

For assay [2], the target named is T2, 5-HT1A serotonin receptor. The settings on record: standard for anxiolytic activity, comparison substance; cited from earlier work.
Where [3] appears, read: 3H-spiroperidol, limbic brain tissue, read-out: IC50 D2 Spiper.

T1 sequence (P61169 whole entry): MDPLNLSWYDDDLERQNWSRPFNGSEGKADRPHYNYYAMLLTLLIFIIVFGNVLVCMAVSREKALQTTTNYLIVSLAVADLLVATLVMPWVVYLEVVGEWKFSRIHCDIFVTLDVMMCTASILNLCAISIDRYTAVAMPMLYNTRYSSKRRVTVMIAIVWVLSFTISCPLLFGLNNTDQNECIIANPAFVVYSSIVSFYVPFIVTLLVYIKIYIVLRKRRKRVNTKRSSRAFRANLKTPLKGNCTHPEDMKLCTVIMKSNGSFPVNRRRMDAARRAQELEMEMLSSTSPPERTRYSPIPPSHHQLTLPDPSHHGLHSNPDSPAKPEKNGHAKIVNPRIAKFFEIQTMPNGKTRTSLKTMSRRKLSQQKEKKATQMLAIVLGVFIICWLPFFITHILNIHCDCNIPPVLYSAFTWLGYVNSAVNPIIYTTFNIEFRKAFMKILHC

Turning to `c1ccc(CCCCNCCOc2cccc3[nH]ccc23)cc1` [Example 1a, [2-(1 H-Indol-4-yloxy)-ethyl]-(4-phenyl-butyl)-amine], the 50% inhibitory concentration (IC50) was 184 nM on dopamine D-2 receptor and 0.71 nM in assay [1].

Consider `Clc1ccc(OCCNCc2ccccc2)c2cc[nH]c12` [Example 1b, Benzyl-[2-(7-chloro-1H-indol-4-yloxy)-ethyl]-amine], for which the IC50 at dopamine D-2 receptor was determined as 183 nM; in assay [1], 386 nM.

In the case of `Clc1ccc(OCCNCc2ccccc2)c2c(Cl)c[nH]c12` [Example 1c, Benzyl-[2-(3,7-dichloro-1H-indol-4-yloxy)-ethyl]-amine], the IC50 stood at 284 nM on dopamine D-2 receptor (setting [3]) and 438 nM in assay [1]. Consider `Clc1ccc(OCCNCc2cccs2)c2c(Cl)c[nH]c12` [Example 1f, Thien-2-ylmethyl-[2-(3,7-dichloro-1H-indol-4-yloxy)-ethyl]-amine], for which, on dopamine D-2 receptor (setting [3]), the IC50 was 405 nM.

On to `Clc1c[nH]c2cccc(OCCNCCCCc3ccccc3)c12` [Example 2a, [2-(3-Chloro-1H-indol-4-yloxy)-ethyl]-(4-phenyl-butyl)-amine], for which the IC50 on dopamine D-2 receptor (setting [3]) is 193 nM; in assay [1], 0.99 nM. As for `O=C(c1c[nH]c2c(Cl)ccc(OCCNCc3ccccc3)c12)C(F)(F)F` [Example 2c, 1-[4-(2-Benzylamino-ethoxy)-7-chloro-1H-indol-3-yl]-2,2,2-trifluoro-ethanone], in assay [1], the half-inhibitory concentration (IC50) stood at 102 nM. As to `O=C(c1c[nH]c2cccc(OCCNCc3ccccc3)c12)C(F)(F)F` [Example 3a, 1-[4-(2-Benzylamino-ethoxy)-1H-indol-3-yl]-2,2,2-trifluoro-ethanone], the IC50 on dopamine D-2 receptor (setting [3]) turned out to be 286 nM; in assay [1], 60 nM. Take `c1ccc(CNCCOc2cccc3[nH]ccc23)cc1` [Example 3b, N-Benzyl-[2-(1H-indol-4-yloxy)]-ethylamine]: the values for the half-inhibitory concentration (IC50) (at dopamine D-2 receptor; in assay [1]) were 501 nM and 36 nM, respectively. As for `O=C1CC2(CCCC2)CC(=O)N1CCCCN1CCN(c2ncccn2)CC1` [buspirone], the “affinity for the 5-HT1A serotonin receptor” value in assay [2] is “potent affinity”.

The record behind these values is US5958965A, “4-aminoethoxy indoles” (American Home Products Corporation, priority 1997, dated 1999).
